# US12162858B2, “Quinoline derivatives as inhibitors of AXL/MER RTK and CSF1R” (QURIENT CO., LTD., priority 2018, dated 2024)
# Tests used:
# Axl (Ba/F3 cells) = target: T1, Axl (Ba/F3 cells) (Homo sapiens, UniProt P30530); assay: BaF3 viability assay, Axl-dependent cells; format: cell-based; details: read-out: Cellular Axl activity by Ba/F3 assay (IC50)
# T1 sequence (P30530 1-894): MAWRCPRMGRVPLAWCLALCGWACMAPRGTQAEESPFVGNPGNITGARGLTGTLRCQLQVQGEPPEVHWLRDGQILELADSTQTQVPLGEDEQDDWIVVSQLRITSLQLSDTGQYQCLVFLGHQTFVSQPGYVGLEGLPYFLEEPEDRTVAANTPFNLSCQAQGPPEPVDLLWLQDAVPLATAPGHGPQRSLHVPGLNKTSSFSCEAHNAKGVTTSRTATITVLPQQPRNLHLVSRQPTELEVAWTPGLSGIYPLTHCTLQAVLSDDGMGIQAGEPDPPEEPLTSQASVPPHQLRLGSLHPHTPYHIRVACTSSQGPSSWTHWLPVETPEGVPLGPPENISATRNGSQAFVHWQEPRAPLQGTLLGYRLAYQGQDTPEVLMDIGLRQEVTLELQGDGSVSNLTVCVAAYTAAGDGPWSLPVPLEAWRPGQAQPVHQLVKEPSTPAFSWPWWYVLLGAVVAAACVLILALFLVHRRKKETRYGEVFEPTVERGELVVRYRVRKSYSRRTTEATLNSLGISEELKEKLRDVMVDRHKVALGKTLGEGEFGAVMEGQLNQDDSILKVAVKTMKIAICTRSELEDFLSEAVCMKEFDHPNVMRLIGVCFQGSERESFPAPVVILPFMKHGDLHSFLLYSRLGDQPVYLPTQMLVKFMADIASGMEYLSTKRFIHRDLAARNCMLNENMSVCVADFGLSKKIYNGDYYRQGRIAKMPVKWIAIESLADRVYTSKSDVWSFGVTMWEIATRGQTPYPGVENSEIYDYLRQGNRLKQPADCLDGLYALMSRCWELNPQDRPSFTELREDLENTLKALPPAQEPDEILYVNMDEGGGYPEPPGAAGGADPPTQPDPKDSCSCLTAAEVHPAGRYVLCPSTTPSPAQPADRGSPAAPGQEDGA
# Excerpt: (§1) In this system, IL-3-dependent Ba/F3 cells are modified to express an activated recombinant kinase (in the present case Axl, Mer and CSF1R). Following removal of IL-3, the modified cells are dependent on the activity of the recombinant kinase for survival and proliferation. Inhibition of such kinase(s) through test compounds reduces survival and proliferation of the cells.
# (§2) Cell lines were maintained in growth media (GM) consisting of RPMI 1640 supplemented with 10% FBS. Cells in logarithmic-phase growth were harvested and 5,000 cells were distributed into each well of a 384-well plate in 50 μl GM. Parental cells (or experimental assays where specified) were further supplemented with 2 ng/ml IL-3 to support cell growth and survival. Fifty nanoliters of the indicated reference standard or experimental compound were added to appropriate wells (in duplicate) and the cells were cultured for 48 h at 37° C./5% CO2. Viability was determined by adding 10 μl Cell Titer Glo and measuring luminescence, which is reported as relative light units (RLU) measured in counts per second. The following calculations and formulas are used for data analysis using GraphPad Prism software: The curve fitting was made using the Dose response curves-Inhibition.
# Mer (Ba/F3 cells) = target: T2, Mer (Ba/F3 cells) (Homo sapiens, UniProt Q12866); assay: BaF3 viability assay, Mer-dependent cells; format: cell-based; details: read-out: Cellular Mer activity by Ba/F3 assay (IC50)
# T2 sequence (Q12866 1-999): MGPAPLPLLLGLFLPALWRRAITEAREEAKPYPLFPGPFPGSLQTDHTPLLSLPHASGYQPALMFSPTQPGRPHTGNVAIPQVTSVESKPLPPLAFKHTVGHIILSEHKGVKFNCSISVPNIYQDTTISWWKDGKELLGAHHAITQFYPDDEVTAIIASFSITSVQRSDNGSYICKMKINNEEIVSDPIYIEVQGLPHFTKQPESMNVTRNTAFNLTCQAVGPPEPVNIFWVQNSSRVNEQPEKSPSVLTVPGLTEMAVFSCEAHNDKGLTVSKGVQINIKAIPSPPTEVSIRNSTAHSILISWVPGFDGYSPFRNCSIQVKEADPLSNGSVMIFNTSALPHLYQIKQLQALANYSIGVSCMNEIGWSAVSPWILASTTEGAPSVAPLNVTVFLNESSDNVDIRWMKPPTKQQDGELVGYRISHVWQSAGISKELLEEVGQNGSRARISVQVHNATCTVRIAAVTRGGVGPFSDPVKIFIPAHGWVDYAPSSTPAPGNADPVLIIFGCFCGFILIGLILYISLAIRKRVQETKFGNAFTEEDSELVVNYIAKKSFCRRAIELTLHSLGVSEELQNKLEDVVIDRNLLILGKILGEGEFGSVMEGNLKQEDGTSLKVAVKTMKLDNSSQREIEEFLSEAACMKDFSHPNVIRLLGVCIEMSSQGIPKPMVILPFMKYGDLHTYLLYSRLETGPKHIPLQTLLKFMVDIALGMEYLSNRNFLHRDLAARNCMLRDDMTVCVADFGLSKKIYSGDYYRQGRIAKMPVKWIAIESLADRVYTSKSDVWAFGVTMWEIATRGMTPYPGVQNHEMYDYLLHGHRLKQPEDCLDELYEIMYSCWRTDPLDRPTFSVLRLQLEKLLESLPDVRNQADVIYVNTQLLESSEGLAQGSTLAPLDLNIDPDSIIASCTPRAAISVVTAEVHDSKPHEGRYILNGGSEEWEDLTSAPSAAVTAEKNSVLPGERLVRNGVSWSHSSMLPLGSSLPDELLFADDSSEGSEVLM
# Excerpt: as §1, §2
Compound,GI50 (Axl (Ba/F3 cells)) [nM],GI50 (Mer (Ba/F3 cells)) [nM]
COCCn1cc(OCC(F)(F)F)c(C(=O)Nc2ccc(Oc3ccnc4cc(OC)c(OC)cc34)cn2)n1 [Compound 10],< 1000,< 1000
CCn1cc(OCC(F)(F)F)c(C(=O)Nc2ccc(Oc3ccnc4cc(OC)c(OC)cc34)cn2)n1 [Compound 4],< 1000,< 1000
COc1cc2nccc(Oc3ccc(NC(=O)c4n[nH]cc4OCC(F)(F)F)nc3)c2cc1OC [Compound 16],< 1000,< 1000
CCCn1cc(OCC(F)F)c(C(=O)Nc2ccc(Oc3ccnc4cc(OC)c(OC)cc34)cn2)n1 [Compound 12],< 1000,< 1000
CCCn1cc(OCC(F)(F)F)c(C(=O)Nc2ccc(Oc3ccnc4cc(OC)c(OC)cc34)cn2)n1 [Compound 7],< 1000,< 1000
